Source: patent US20200108032A1, “USE OF ISOFERULIC ACID, ISOFERULIC ACID-CONTAINING TRADITIONAL CHINESE MEDICINE EXTRACT AND CIMICIFUGAE RHIZOMA” (BEIJING DITAN HOSPITAL, CAPITAL MEDICAL UNIVERSITY, priority 2017, published 2020)

What was measured:
[1] = test system: mouse model of ConA hepatitis; assay: Serum ALT and AST in mouse model of ConA hepatitis; format: in vivo, C57BL/6 mice; details: serum 10 hours after ConA 15 mg/kg i.v.; doses as Experimental Example 1; MEAN ± SEM
Description: The test materials and animals were the same as those in Experimental Example 1.
Grouping: C57BL/6 mice, male, 18-20 g, after 1 day of adaptive breeding, the mice were randomly divided into 6 groups: normal control group; ConA model group, Cimicifugae rhizoma compatibility group, Cimicifugae rhizoma group, Cimicifugae rhizoma total phenolic acid group and isoferulic acid group.
Model preparation and drug administration: except the normal control group, mice were injected intravenously once at a dose of ConA 15 mg/kg. The dosages of each drug group were the same as those of Experimental Example 1.
(1) The effects of each drug group on serum ALT and AST of ConA mice were examined. Eight mice in each group were sacrificed under anesthesia 10 hours after ConA injection. Peripheral blood was taken and serum was separated to detect ALT and AST.

[2] = test system: CD48-CD11b+ positive granulocytes; assay: Proportion of granulocytes in CIA arthritis mice (flow cytometry); format: in vivo, C57BL/6 mice; details: CD48-CD11b+ granulocytes to white blood cells; 21 days after second immunization; MEAN ± SEM
Text: Test materials and animals: CD48 PE and CD11b FITC antibodies were purchased from BD Pharmingen; RBC Lysis Buffer was purchased from Biolegend of the United States; other required reagents were the same as in Experimental Example 3.
Model preparation and drug administration: the administration dose of each treatment group was the same as that of Experimental Example 3. 21 days after the second immunization, the mice were anesthetized.
Animal: C57BL/6 mouse, purchased from Beijing Huafukang Biotechnology Co., Ltd.
Preparation of bone marrow single cell suspension: After anesthesia of C57BL/6 mice, the two pairs of femur and tibia of the mouse were separated, PBS was pipetted with a 2 mL syringe to flush the bone marrow cells into a flow tube, and pipetted repeatedly to obtain the bone marrow single cell suspension. The bone marrow was filtered into a flow tube with a 400-mesh strainer, discarded the supernatant after centrifugation, added 2 mL of RBC Lysis Buffer and lysed at room temperature for 15 min. Discarded the supernatant by centrifugation, harvested the bone marrow cells, resuspended by adding 1 mL of PBS, and repeatedly mixing by pipetting 100 μL into the flow tube for surface staining. […]

Question: COc1ccc(C=CC(=O)O)cc1O [isoferulic acid, 3-hydroxy-4-methoxycinnamic acid] was tested. Which ALT [1] did it give?
Answer: 3573 ± 1314 U/L

Question: And the AST [1]?
Answer: 4351 ± 1588 U/L

Question: What about the “proportion of granulocytes, Bone marrow” value [2] of the same compound?
Answer: 44.6 ± 5.1 %

Question: What about the “proportion of granulocytes, spleen” value [2] of the same compound?
Answer: 9 ± 4.4 %
